Experimental data: US20020098186A1, “Use of endothelin inhibitors for treatment or prevention of fibrotic disorders” (priority 1999, published 2002)

Columns and labels:
[1] = Clinical chemical serum parameters in BDO and sham-operated rats; format: in vivo, rat; details: for ALP / ALT / AST / Bili (total bilirubin) / γGT: serum, mean ± SD
Description: Female adult wistar rats, average weight 206±19 g, underwent the following microsurgical procedure under an operating microscope (OPMI 6-2, Zeiss, Germany) (B. Gerling, M. Becker, J. Waldschmidt, D. Schuppan (1996). J. Hepatol. 25:79-84; G. Boigk, L. Stroedter, H. Herbst H, et al. (1997). Hepatology 26:643-639.): 1. midline abdominal incision following anaesthesia with 100 mg/kg ketamine-hydroochloride (Ketanest®, Parke-Davis, Germany) and 10 mg/kg 5,6-dihydro-2-(2,6-xylidino)-4H-1,3-thiazine-hydrochloride (Rompun®, Bayer, Germany); 2. dissection of the common bile duct, insertion of a teflon catheter (Abbocath -T 26 G, venisystems, U.S.A.) and placement of a distal complete and a proximal incomplete ligature with 5-0 silk (Permahand , Ethicon, Germany); 3. retrograde injection of sodium-amidotrizoate (Ethibloc®, Ethicon Germany) at a dose of 0.02 ml/100 g body weight; 4. removal of the catheter, closure of the proximal ligature, scission of the bile duct between the ligatures and wound closure. After bile duct occlusion (BDO), animals received normal chow (Altromin®, Lage, Germany) and were allowed free access to water. […] The following therapeutic groups were formed: 1. BDO and LU at 80 mg/kg/d for 6 weeks (BDO 80/1-6:n=20); 2. BDO and LU at 80 mg/kg/d from week 4-6 of BDO (BDO 80/4-6:n=20); 3. […]
Standard laboratory parameters were measured by our in-hospital clinical chemical department, using an automated analyser (BM/Hitachi 747). The aminoterminal propeptide of procollagen type III (PIIINP) was determined using a sequential saturation radioimmunoassay based on PIINP from rat, a monospecific rabbit antiserum to rat PIIINP and a goat antiserum to rabbit IgG, using a previously described procedure (B. Gerling, M. Becker, J. Waldschmidt, D. Schuppan (1996). J. Hepatol. 25:79-84; G. Boigk, L. Stroedter, H. Herbst H, et al. (1997). Hepatology 26:643-649; d. Schuppan, J. M. Dumont, K. Y. Kim, et al. (1986). J. Hepatol. 3:27-37.). Inter- and intra-assay coefficients of variation were 12% and 5% for a normal and 4% and 3% for a pathological serum sample, resp.

procollagen α1(I) RNA = assay: Multiprobe RNAse protection assay of liver RNA, procollagen α1(I); format: in vivo, rat; details: BDO rats, LU 80 mg/kg/d for 6 weeks; relative to GAPDH; p<0.05
Description: (§1) Plasmids encoded predescribed regions of the rat procollagen α1 (I) and […] (GAPDH) genes, encompassing 230 bp (Bam HI/Rsal sites) and 102 bp (position 335-437), resp. (44, 45). The rat tissue inhibitor of metalloproteinase-1 (TIMP-1) probe (position 176-439) was prepared by RT-PCR according to the published sequence (J. P. Iredale, R. C. Benyon, M. J. P. Arthur (1996). Hepatology 24:176-184.), cloned into pZErO-1 (Invitrogen, San Diego, Calif., U.S.A.) and confirmed by restriction enzyme analysis. Preparation of riboprobes: The cDNA templates were linearized with appropriate restriction endonucleases. […] Riboprobes were purified by electrophoresis through a denaturing polyacrylamide gel and the radioactivity of eluted probes were measured by liquid scintillation counting. […] Autoradiographic signals were analyzed with the public domain NTH Image Program. The procollagen α1(I) and TIMP-1 RNA signals were normalized to the signal of GAPDH RNA and expressed as relative abundance (arbitrary units). 10 liver samples each of negative controls, of untreated rats with BDO and of rats with BDO that received LU at 80 mg/kg/d were analyzed.

TIMP-1 RNA = assay: Multiprobe RNAse protection assay of liver RNA, TIMP-1; format: in vivo, rat; details: BDO rats, LU 80 mg/kg/d for 6 weeks; relative to GAPDH; p<0.05
Description: as §1

[2] = tested on: desmin-positive cells (rat hepatic stellate cells); assay: Desmin staining of liver sections (activated hepatic stellate cells); format: in vivo; details: LU-treated animals (data not shown)
[3] = BDO/LU 80/1-6 (n = 10): BDO, LU 80 mg/kg/d week 1-6
[4] = BDO/LU 80/4-6 (n = 14): BDO, LU 80 mg/kg/d week 4-6
[5] = Sham/LU: sham operation, LU 80 mg/kg/d for 6 weeks, n = 10

## COc1cc(OC)nc(O[C@H](C(=O)O)C(OC)(c2ccccc2)c2ccccc2)n1 [LU]
[1]; all groups with BDO
  Clinical chemical serum parameters (AST, ALT, alkaline phosphatase, gamma glutamyltranspeptidase, total bilirubin, creatinine): did not differ between all groups with BDO
[1]; headed BDO/LU 80/1-6 (n = 20)
  ALP: 256.1 ± 49.6 U/L
  ALT: 22 ± 8.4 U/L
  AST: 198 ± 56.7 U/L
  Bili (total bilirubin): 189.5 ± 43.2 µmol/L
  γGT: 15 ± 6.4 U/L
[1]; [3]
  ALP: 230.7 ± 55.7 U/L
  ALT: 23.6 ± 10.8 U/L
  AST: 160.9 ± 78.5 U/L
  Bili (total bilirubin): 171.3 ± 49.5 µmol/L
  γGT: 32.7 ± 24.4 U/L
[1]; [4]
  ALP: 253.1 ± 75.8 U/L
  ALT: 40.2 ± 52 U/L
  AST: 229 ± 78.5 U/L
  Bili (total bilirubin): 209.9 ± 48.9 µmol/L
  γGT: 28.1 ± 26.4 U/L
[1]; [5]
  ALP: 85.3 ± 17.9 U/L
  ALT: 21.7 ± 3.3 U/L
  AST: 36.4 ± 7.9 U/L
  Bili (total bilirubin): 1.6 ± 0.5 µmol/L
  γGT: 0.3 ± 0.5 U/L
Procollagen α1(I) RNA
  Reduction of procollagen α1(I) mRNA level: 35%
TIMP-1 RNA
  Reduction of TIMP-1 mRNA level: 55%
[2]
  Number of desmin-positive cells in liver sections: significantly reduced
